Read-outs that look alike come from different tables or passages of the source.
Target: human Nav 1.8 (Homo sapiens, UniProt Q9Y5Y9)
Assay: E-VIPR assay detecting and measuring Nav inhibition (HEK cells expressing truncated human Nav 1.8)
Assay type: cell-based
In short: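 HEK cells expressing truncated human Nav1.8, transduced with KIR2.1 BacMam, were loaded with CC2-DMPE/DiSBAC6(3) FRET dyes and tested under electrical stimulation (E-VIPR). Compounds were run as 11-point 3-fold dilutions, top 300 nM final, 0.625% DMSO, with or without 25% human serum.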

[1] = in the Presence of Human Serum in the E-VIPR Assay, read-out: IC50
[2] = in the Absence of Human Serum in the E-VIPR Assay, read-out: IC50

Sequence of human Nav 1.8 (Q9Y5Y9 whole entry, looked up, the tested form may be a part): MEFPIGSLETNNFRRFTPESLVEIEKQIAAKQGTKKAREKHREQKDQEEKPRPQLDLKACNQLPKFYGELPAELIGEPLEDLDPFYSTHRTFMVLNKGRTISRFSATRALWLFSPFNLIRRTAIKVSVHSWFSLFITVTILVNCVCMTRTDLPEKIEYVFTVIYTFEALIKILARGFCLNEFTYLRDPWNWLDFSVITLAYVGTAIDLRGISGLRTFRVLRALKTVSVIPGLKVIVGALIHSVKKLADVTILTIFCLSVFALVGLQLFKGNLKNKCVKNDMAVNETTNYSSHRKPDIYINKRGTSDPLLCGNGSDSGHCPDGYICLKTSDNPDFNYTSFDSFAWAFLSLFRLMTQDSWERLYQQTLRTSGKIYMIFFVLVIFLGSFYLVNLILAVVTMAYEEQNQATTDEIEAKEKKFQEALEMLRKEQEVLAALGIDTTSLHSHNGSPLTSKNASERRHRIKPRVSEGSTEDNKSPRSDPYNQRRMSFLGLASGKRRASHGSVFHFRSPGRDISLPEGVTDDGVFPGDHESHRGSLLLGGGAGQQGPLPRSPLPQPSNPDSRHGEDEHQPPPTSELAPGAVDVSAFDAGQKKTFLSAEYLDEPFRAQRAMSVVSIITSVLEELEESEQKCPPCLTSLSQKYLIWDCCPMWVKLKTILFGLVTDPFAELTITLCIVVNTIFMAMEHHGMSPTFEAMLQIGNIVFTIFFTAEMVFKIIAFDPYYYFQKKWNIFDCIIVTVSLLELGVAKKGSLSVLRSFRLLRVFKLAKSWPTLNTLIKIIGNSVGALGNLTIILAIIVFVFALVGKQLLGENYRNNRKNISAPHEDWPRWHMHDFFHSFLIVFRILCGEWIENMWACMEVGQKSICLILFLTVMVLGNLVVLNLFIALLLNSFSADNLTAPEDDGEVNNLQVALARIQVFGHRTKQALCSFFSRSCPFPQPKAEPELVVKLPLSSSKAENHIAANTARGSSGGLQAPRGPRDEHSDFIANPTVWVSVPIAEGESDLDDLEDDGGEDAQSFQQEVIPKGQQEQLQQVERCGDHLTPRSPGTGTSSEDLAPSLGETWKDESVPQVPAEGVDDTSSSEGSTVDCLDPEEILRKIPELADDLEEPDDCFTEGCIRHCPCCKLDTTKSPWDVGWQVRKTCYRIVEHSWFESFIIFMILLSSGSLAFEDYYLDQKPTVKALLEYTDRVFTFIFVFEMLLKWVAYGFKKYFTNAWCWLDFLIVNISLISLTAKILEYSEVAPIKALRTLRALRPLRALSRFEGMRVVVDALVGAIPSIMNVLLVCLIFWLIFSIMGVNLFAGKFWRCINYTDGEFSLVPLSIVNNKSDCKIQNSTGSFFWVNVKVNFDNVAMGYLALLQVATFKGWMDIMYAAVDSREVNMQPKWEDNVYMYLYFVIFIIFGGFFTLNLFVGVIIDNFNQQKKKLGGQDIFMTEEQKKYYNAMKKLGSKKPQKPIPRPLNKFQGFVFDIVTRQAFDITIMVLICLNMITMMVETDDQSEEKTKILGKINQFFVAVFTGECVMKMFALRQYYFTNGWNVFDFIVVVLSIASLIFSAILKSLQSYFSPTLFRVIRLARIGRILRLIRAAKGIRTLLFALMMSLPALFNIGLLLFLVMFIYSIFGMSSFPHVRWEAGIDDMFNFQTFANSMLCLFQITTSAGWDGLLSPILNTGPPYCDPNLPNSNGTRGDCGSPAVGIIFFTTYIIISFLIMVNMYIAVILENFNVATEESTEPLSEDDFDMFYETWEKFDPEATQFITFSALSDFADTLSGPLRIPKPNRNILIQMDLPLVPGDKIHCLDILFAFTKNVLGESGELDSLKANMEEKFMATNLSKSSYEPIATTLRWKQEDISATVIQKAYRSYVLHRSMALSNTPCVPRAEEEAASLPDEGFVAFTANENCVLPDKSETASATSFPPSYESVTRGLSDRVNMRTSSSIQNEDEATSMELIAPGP

SMILES | IC50 [1] [nM] | IC50 [2] [nM] | further results
C[C@H]1[C@@H](c2ccc(F)c(F)c2OCC2CC(F)(F)C2)[C@H](C(=O)Nc2ccnc(C(N)=O)c2)O[C@@]1(C)C(F)(F)F [Compound 146, 4-[[(2R,3S,4S,5R)-3-[2-[(3,3-difluorocyclobutyl)methoxy]-3,4-difluoro-phenyl]-4,5-dimethyl-5-(trifluoromethyl)tetrahydrofuran-2-carbonyl]amino]pyridine-2-carboxamide] | 10 to 100 | – | –
C[C@H]1[C@@H](c2ccc(F)c(F)c2OC2CCC2)[C@H](C(=O)Nc2ccnc(C(N)=O)c2)O[C@@]1(C)C(F)(F)F [Compound 147, 4-[[(2R,3S,4S,5R)-3-[2-(cyclobutoxy)-3,4-difluoro-phenyl]-4,5-dimethyl-5-(trifluoromethyl)tetrahydrofuran-2-carbonyl]amino]pyridine-2-carboxamide] | – | < 10 | –
[2H]c1cc([C@H]2[C@H](C(=O)Nc3ccnc(C(N)=O)c3)O[C@@](C)(C(F)(F)F)[C@H]2C)c(OC)c(F)c1F [Compound 148, 4-[[(2R,3S,4S,5R)-3-(5-deuterio-3,4-difluoro-2-methoxy-phenyl)-4,5-dimethyl-5-(trifluoromethyl)tetrahydrofuran-2-carbonyl]amino]pyridine-2-carboxamide] | – | – | IC50 (in the Absence of Human Serum in the E-VIPR Assay): < 10 nM
C=Cc1c([C@H]2[C@H](C(=O)Nc3ccnc(C(N)=O)c3)O[C@@](C)(C(F)(F)F)[C@H]2C)ccc(F)c1F [Compound 149, 4-[[(2R,3S,4S,5R)-3-(3,4-difluoro-2-vinyl-phenyl)-4,5-dimethyl-5-(trifluoromethyl)tetrahydrofuran-2-carbonyl]amino]pyridine-2-carboxamide] | – | < 10 | –
COc1c([C@H]2[C@H](C(=O)Nc3ccnc(C(N)=O)c3)O[C@@](C)(C(F)(F)F)[C@H]2C)cc(Cl)c(F)c1F [Compound 152, 4-[[(2R,3S,4S,5R)-3-(5-chloro-3,4-difluoro-2-methoxy-phenyl)-4,5-dimethyl-5-(trifluoromethyl)tetrahydrofuran-2-carbonyl]amino]pyridine-2-carboxamide] | – | < 10 | –
[2H]C([2H])([2H])Oc1c([C@H]2[C@H](C(=O)Nc3ccnc(C(N)=O)c3)O[C@@](C)(C(F)(F)F)[C@H]2C)ccc(F)c1F [compound 26] | – | – | IC50 (in the Presence of Human Serum in the E-VIPR Assay): < 10 nM
C[C@@]1(C(F)(F)F)C[C@H](c2ccc(F)cc2OC(F)F)[C@@H](C(=O)Nc2ccnc(C(N)=O)c2)O1 [compound 73] | > 1000 | – | –
C[C@]1(C(F)(F)F)C[C@@H](c2ccc(F)cc2OC(F)F)[C@H](C(=O)Nc2ccnc(C(N)=O)c2)O1 [compound 74] | 10 to 100 | – | –
